Results published in patent US10976310B2, “Ligand identification by co-fractionation” (MAX-PLANCK-GESELLSCHAFT ZUR FÖRDERUNG DER WISSENSCHAFTEN …, priority 2016, dated 2021).
Values joined by “and” are separate entries in the source; they are usually repeats but may differ in a detail not shown here. Equal values may be shown once.

What was measured:
[1] = target: T1, Rbp47b (Arabidopsis thaliana, UniProt Q0WW84); experiment: MST measurement of ligand binding to recombinant Rbp47b; conditions: His6-Rbp47b from E. coli, n=3
T1 sequence (Q0WW84 1-435): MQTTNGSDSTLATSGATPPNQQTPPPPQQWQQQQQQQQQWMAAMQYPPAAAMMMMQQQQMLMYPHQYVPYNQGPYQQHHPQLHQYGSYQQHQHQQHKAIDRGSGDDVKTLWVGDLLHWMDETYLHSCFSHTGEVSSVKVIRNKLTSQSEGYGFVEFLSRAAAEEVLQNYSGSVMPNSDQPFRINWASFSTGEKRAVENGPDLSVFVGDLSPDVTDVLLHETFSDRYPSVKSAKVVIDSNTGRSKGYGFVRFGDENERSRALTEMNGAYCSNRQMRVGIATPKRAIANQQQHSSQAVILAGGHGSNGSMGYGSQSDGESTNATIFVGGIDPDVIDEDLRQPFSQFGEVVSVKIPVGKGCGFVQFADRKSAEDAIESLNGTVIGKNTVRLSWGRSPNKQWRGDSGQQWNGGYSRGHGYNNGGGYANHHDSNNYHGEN
Excerpt: We therefore attempted to determine the in vitro binding affinity biophysically using micro-scale thermophoresis (MST) (Jerabek-Willemsen et al. (2011) Molecular interaction studies using microscale thermophoresis. Assay Drug Dev Technol 9: 342-353). MST exploits the effect of size, charge, and hydration shell on the movement of molecules in a temperature gradient. Complex formation resulting in alteration of at least one of the three parameters leads to differential movement, from which the binding affinity can be determined. For the purpose of the MST experiment, Rbp47b was expressed in and purified from E. coli. […] The measured Kd value also corresponds to the ˜20 μM concentration of 2′,3′-cAMP measured in the native Arabidopsis lysate (FIG. 11B).
TIA1 protein was purchased from Origene (Herford, Germany). Rbp47b was cloned as a C-terminal GFP fusion (to increase protein solubility) into the E. coli expression vector pDEST14 containing His6-tag at the N-terminal of the Gateway (Karlsruhe, Germany) cassette. […]
Next day, cells were disrupted with an Avestin (Mannheim, Germany) EmulsiFlex C3 homogenizer and the protein was purified using imidazole-gradient purification in Ni-NTA agarose (Qiagen 34080, Hilden, Germany). […] Protein purity was assessed by SDS-PAGE and protein identification was done using western blot using anti-His6 antibodies. […]

[2] = target: T2, TIA1 (Homo sapiens, UniProt P31483); experiment: MST measurement of ligand binding to recombinant TIA1; conditions: recombinant TIA1, n=3
T2 construct: purchased Origene (Herford, Germany)
T2 sequence (P31483 1-386): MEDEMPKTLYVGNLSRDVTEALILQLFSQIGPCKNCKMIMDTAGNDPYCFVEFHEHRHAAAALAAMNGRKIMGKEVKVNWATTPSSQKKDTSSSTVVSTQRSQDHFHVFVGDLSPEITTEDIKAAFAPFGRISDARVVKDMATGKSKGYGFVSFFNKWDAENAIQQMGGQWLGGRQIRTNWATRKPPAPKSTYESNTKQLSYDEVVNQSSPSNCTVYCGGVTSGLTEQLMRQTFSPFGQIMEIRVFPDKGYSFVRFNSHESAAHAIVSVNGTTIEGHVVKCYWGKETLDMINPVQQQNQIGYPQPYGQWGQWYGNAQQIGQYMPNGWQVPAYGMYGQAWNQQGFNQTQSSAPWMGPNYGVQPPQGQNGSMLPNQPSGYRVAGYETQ
Experimental: (§1) Expecting such a basic role of 2′,3′-cAMP to be conserved, we performed similar analysis with TIA1, the human functional homolog of Rbp47b. TIA1 was labeled and its interaction with 2′,3′-cAMP was determined using MST.
TIA1 protein was purchased from Origene (Herford, Germany). Rbp47b was cloned as a C-terminal GFP fusion (to increase protein solubility) into the E. coli expression vector pDEST14 containing His6-tag at the N-terminal of the Gateway (Karlsruhe, Germany) cassette. Rosetta cells expressing His6-Rbp47b-GFP were grown at 28° C. overnight and next day were moved to Terrific Broth medium supplied with 1% sucrose and relevant antibiotics. Cultures at OD 0.4 were induced by addition of 0.1 mM IPTG and transferred to 16° C. for overnight incubation.
MST measurements were performed using a Monolith NT.115 instrument (NanoTemper, München, Germany). Capillaries were loaded into the instrument as sets of 13-16 point ligand titrations. Proteins (Rb47b and TIA1) were labeled in phosphate buffer (PBS) using Monolith™ protein labeling kit RED-NHS (amine reactive; MO-L001) according to the manufacturers instruction. Excitation was optimized by varying the LED power to yield emission intensities above 200 AU, corresponding to 10-50 nM labeled protein. Monolith power was set to 60%. Ligands [2′,3′-cAMP (Sigma A9376)] and [3′,5′-cAMP (Sigma A6885)] were dissolved in PBS. […]

[3] = target: T3, Rbp47b self-assembly (Arabidopsis thaliana, UniProt Q0WW84); experiment: MST measurement of Rbp47b self-assembly; assay type: binding; conditions: 50 μM 2′,3′-cAMP; in its absence Kd=127.87 nM (128 nM); read-out: Kd of Rbp47b self-assembly in the presence of the ligand
T3 construct: GFP (C, cleaved yes); made in house; host or cells: E. coli Rosetta
T3 sequence (Q0WW84 1-435): T1 sequence (Q0WW84 1-435)
Excerpt: In plants 2′,3′-cAMP levels increase rapidly under wounding stress (Van Damme (2014) (loc. cit.)). To test whether 2′,3′-cAMP level changes in other stress conditions we queried metabolomics date from stress time-course of (Caldana et al. (2011) High-density kinetic analysis of the metabolomic and transcriptomic response of Arabidopsis to eight environmental conditions. Plant J 67: 869-884). Shortly, mature Col-0 rosettes (prior bolting) grown in the control environment, were transferred into combinations of light (low light, high light, darkness) and temperature stress conditions (heat and cold) and sampled in multiple time-points until 24 h following stress onset. […] If the interaction takes place in the cytosol, where both, Rbp47b and 2′,3′-cAMP are present, one would expect that 2′,3′-cAMP might influence stress granules formation, meaning oligomerization of Rbp47b. Due to the lack of commercially available membrane permeable derivative of 2′,3′-cAMP molecule, we were unable to follow stress granules formation in vivo. However we tested this hypothesis directly by determining the oligomerization of Rbp47b in the presence and absence of saturating amounts of 2′,3′-cAMP by MST. […] 2′,3′-cAMP, besides being the degradation product of mRNA, could play a regulatory role by influencing the oligomerization of the Rbp47b protein, in turn influencing the formation of SGs. […]

[4] = target: T4, TIA1 self-assembly (Homo sapiens, UniProt P31483); experiment: MST measurement of TIA1 self-assembly; assay type: binding; conditions: 500 μM 2′,3′-cAMP; in its absence Kd=36.28 nM (36 nM); read-out: Kd of TIA1 self-assembly in the presence of the ligand
T4 construct: purchased Origene (Herford, Germany)
T4 sequence (P31483 1-386): T2 sequence (P31483 1-386)
Experimental: as §1
MST measurements were performed using a Monolith NT.115 instrument (NanoTemper, München, Germany). Capillaries were loaded into the instrument as sets of 13-16 point ligand titrations. Proteins (Rb47b and TIA1) were labeled in phosphate buffer (PBS) using Monolith™ protein labeling kit RED-NHS (amine reactive; MO-L001) according to the manufacturers instruction. Excitation was optimized by varying the LED power to yield emission intensities above 200 AU, corresponding to 10-50 nM labeled protein. Monolith power was set to 60%. Ligands [2′,3′-cAMP (Sigma A9376)] and [3′,5′-cAMP (Sigma A6885)] were dissolved in PBS. 0.5% Tween and premium coated capillaries were used to prevent sticking. Non-labeled TIA1 and Rbp47b were used as ligands in the self-assembly experiments. MO Affinity Analysis software was used to analyze (Kd calculation) and visualize the data. Presented data are from 2-3 technical replicates.

Nc1ncnc2c1ncn2[C@@H]1O[C@H](CO)[C@H]2OP(=O)(O)O[C@H]21 [2′,3′-cAMP]
Kd [1]: 1020 nM and 1000 nM
Kd [2]: 217000 nM
Kd [3]: 8.9 nM and 9 nM
Kd [4]: 20.6 nM and 20 nM
